From patent US20220241310A1, “THIARABINE- AND THIARABINE PRODRUG-BASED TREATMENTS” (Southern Research Institute, priority 2019, published 2022)

Columns and labels:
MC38^hPDL-1 = assay: IC50 in MC38^hPDL-1 tumor cell model; type: cell-based; settings: Mus musculus, MC38-hPD-L1; humanized murine colorectal model; read-out: MC38^huPD=L1 (IC50 μM)
From the text: (§1) Representative IC50 values of thiarabine and related prodrugs tested in two tumor cell models, a humanized murine colorectal model MC38^hPDL-1 and a human ovarian cancer model OVCAR-3, are shown in Table 1 below.

OVCAR-3 = assay: IC50 in OVCAR-3 tumor cell model; type: cell-based; settings: human ovarian cancer model
From the text: as §1

[1] = system: MC38^hPDL-1 colon tumor cells; assay: MC38^hPDL-1 tumor response to mono- and combination-therapy in mice; type: in vivo, C57BL/6^hPD-1/hPD-L1 mice; settings: combination with Keytruda; subcutaneous MC38^hPDL-1 tumor; FIG. 1A/1B
Description: A total of 32 C57BL/6^hPD-1/hPD-L1 mice, male and female, were injected subcutaneously with five hundred thousand (5×10^5) MC38^hPDL-1 colon tumor cells in the right flank at a volume of 0.1 mL. Innoculation day was marked as Day 0. Tumor measurements were taken biweekly for the duration of the study. Tumor weights (mg) were calculated using the equation for an ellipsoid sphere: (l×w^2)/2=mm^3, where l and w refer to the larger and smaller dimensions collected at each measurement and assuming unit density (1 mm^3=1 mg). Target tumor weight for initiation of treatment was approximately 75 to 144 mg for a target group mean tumor weight of approximately 110 mg. The animals on study were randomly assigned to four groups to contain two males and six females. Dosing began on day 13 of the study. Re-challenge of MC38^1-1 in the opposite flank of tumor-free mice from the Keytruda and combination groups occurred on day 31 of the study and mice were monitored for tumor growth for the duration of the study.
Thiarabine: The 500 mg vial was reconstituted with 4.6 mL of saline (0.9% Sodium chloride) to yield a 100 mg/mL stock solution. Each day of dosing, the 100 mg/mL solution was diluted to […] with saline. The dose concentration was 10 mL/kg with a dose volume of 0.1 mL for dose of 30 mg/kg. Mice were dosed IP Q2Dx10. […]

SMILES	IC50 (MC38^hPDL-1)	IC50 (OVCAR-3)	tumor volume over time [1]
CC(C)OC(=O)[C@H](C)NP(=O)(OC[C@H]1S[C@@H](n2ccc(N)nc2=O)[C@@H](O)[C@@H]1O)Oc1ccccc1 (single isomer, unassigned) [SRI-41302]	15.8 µM	1.25 µM	total tumor regression
CCC(CC)COC(=O)[C@H](C)NP(=O)(OC[C@H]1S[C@@H](n2ccc(N)nc2=O)[C@@H](O)[C@@H]1O)Oc1ccccc1 (stereo partly drawn) [SRI-44340, ethylbutyl ((((2R,3S,4S,5R)-5-(4-amino-2-oxopyrimidin-1(2H)-yl)-3,4-dihydroxytetrahydrothiophen-2-yl)methoxy)(phenoxy)phosphoryl)-1-alaninate]	–	0.65 µM	–
Nc1ccn([C@@H]2S[C@H](CO)[C@@H](O)[C@@H]2O)c(=O)n1 [Thiarabine]	2.71 µM	1.13 µM	total tumor regression
